The experiment deals with LC3 puncta in MG-63 cells. The experiment can be described thus: LC3 puncta formation (mRFP-GFP-LC3 reporter). It counts as cell-based, human. To be noted: for LC3 puncta formation: cisplatin 20 μM, 24 hr. As for the experimental part:
FIG. 3. GFRα1-induced autophagy enhances the chemoresistance of osteosarcoma cells induced by cisplatin. (a) Control and GFRα1-deficient MG-63 cells were transiently transfected with a mRFP-GFP tandem fluorescent-tagged LC3 (mRFP-GFP-LC3) vector and then treated with cisplatin (20μM) for 24 hr. Left, representative images of RFP-LC3 and GFP-LC3 puncta. Scale bar, 20 μm. Right, quantitative analysis of the number of yellow puncta and the number of RFP-LC3 puncta in the combined images. The values are represented as a mean±s.d.m. (n=3). ** denotes p<0.05 by t-test. (b) Control and GFRα1-deficient MG-63 cells were treated with cisplatin (20 μM) for 24 hr and then stained with acridine orange. Top, representative images of cells stained with acridine orange. Scale bar, 20 μm. Bottom, quantitative analysis of the number of AVOs. The values are represented as a mean±s.d.m. (n=3). ** denotes p<0.05 by t-test. (c) Control and GFRα1-deficient MG-63 cells were treated with cisplatin (20 μM) for 24 hr and then analyzed by TEM. Top, representative images of autophagic vacuoles (yellow arrows) detected after cisplatin treatment in control MG-63 cells. Scale bar, 100 nm. Bottom, quantitative analysis of the number of autophagic vacuoles. The values are represented as a mean±s.d.m. (n=3). ** denotes p<0.05 by t-test. (d) Immunoblot analysis of control and GFRα1-overexpressing osteosarcoma cell lysates with antibodies specific for GFRα1, LC3 and β-actin. GFRα1-overexpressing MG-63 cells were treated with DMSO, 3-MA (10 μM) or Baf (100 nM). (e) Quantitative analysis of the number of yellow puncta and the number of RFP-LC3 puncta in control and GFRα1-overexpressing MG-63 cells. Control and GFRα1-overexpressing MG-63 cells were transiently transfected with an RFP-GFP tandem fluorescent-tagged LC3 (mRFP-GFP-LC3) and then treated with cisplatin (20 μM) for 24 hr. […] (g) Control and GFRα1-overexpressing MG-63 cells were treated with cisplatin (20 μM) for 24 hr and then stained with acridine orange. Top, representative images of cells stained with acridine orange. Scale bar, 20 μm. Bottom, quantitative analysis of the number of AVOs. The values are represented as a mean±s.d.m. (n=3). ** denotes p<0.05 by t-test. (h) Control and GFRα1-overexpressing MG-63 cells were treated with cisplatin (20 μM) for 24 hr and then analyzed by TEM. Top, representative images of autophagic vacuoles detected after cisplatin treatment in control and GFRα1-overexpressing MG-63 cells. Scale bar, 100 nm. Bottom, quantitative analysis of the number of autophagic vacuoles. The values are represented as a mean±s.d.m. (n=3). ** denotes p<0.05 by t-test. (i) Cell viability of GFRα1-overexpressing osteosarcoma cells after cisplatin treatment in the presence of autophagy inhibitors. Control or GFRα1-overexpressing MG-63 cells were cultured with DMSO, 3-MA or Baf, and then treated with cisplatin (20 μM) for 24 hr. Cell viability was measured using the WST-1 assay. The values are represented as a mean±s.d.m. (n=3). ** denotes p<0.05 by t-test. (j) Cell viability of GFRα1-overexpressing osteosarcoma cells after cisplatin treatment in the presence of Beclin 1 (20 nM) or HMGB1 (20 nM) […] siRNA. Control or GFRα1-overexpressing MG-63 cells were cultured with Beclin 1 or HMGB1 siRNA for 48 hr and then treated with cisplatin (20 μM) for 24 hr. Cell viability was measured using the WST-1 assay. The values are represented as a mean±s.d.m. (n=3). ** denotes p<0.05 by t-test. (k) The effect of GFRα1 deficiency or overexpression on colony formation in the presence of cisplatin (20 μM). Equal number (1×10^4 cells) of control (control shRNA), GFRα1-deficient (GFRα1 shRNA), control (empty vector), and GFRα1-overexpressing (GFRα1 expressing vector) MG-63 cells were plated. All of cell lines were incubated with cisplatin (20 μM) for 10 days. Colonies were stained by crystal violet for visualization. Left, representative images of colony formation. Right, quantitative analysis of the number of colonies and plating efficiency. […]

Consider `N.N.[Cl][Pt][Cl]` [cisplatin, Cis-Diamineplatinum(II) dichloride], for which the LC3 puncta formation result by setting is: (GFRα1-deficient MG-63 cells) “no change”; (MG-63 cells transfected with control shRNA) “significantly increased”.

As for `Cn1cnc(N)c2ncnc1-2` [3-MA, 3-methyladenine], the cisplatin-induced puncta formation result (MG-63 cells pretreated with 3-MA (10 mM) 2 hr, cisplatin 20 μM 24 hr) is “blocked”. Moreover, the puncta formation entry (control and GFRα1-overexpressing cells, 3-MA pretreatment 2 hr) was “blocked”.

B1: GDNF: glial cell line-derived neurotrophic factor, the major ligand of GFRα1 (protein, UniProt P39905 78-211, looked up)
Glial cell line-derived …: SPDKQMAVLPRRERNRQAAAANPENSRGKGRRGQRGKNRGCVLTAIHLNVTDLGLGYETKEELIFRYCSGSCDAAETTYDKILKNLSRNRRLVSDKVGQACCRPIAFDDDLSFLDDNLVYHILRKHSAKRCGCI
B1: the “GFRα1-mediated autophagy after cisplatin treatment” value (control and GFRα1-overexpressing MG-63 cells, GDNF) is on record as “did not have an effect”. Moreover, the “LC3 puncta formation on addition of GDNF” value (control or GFRα1-overexpressing cells, GDNF 24 h) is reported as “no significant effect”.

These data come from patent publication US20180171411A1, “GFRalpha1 AS A BIOMARKER FOR CISPLATIN-INDUCED CHEMORESISTANCE AND METASTASIS” (THE BOARD OF REGENTS OF THE UNIVERSITY OF TEXAS SYSTEM, priority 2015, published 2018).
